ChEMBL document CHEMBL2440076, “New triarylpyrazoles as broad-spectrum anticancer agents: design, synthesis, and biological evaluation” (Eur J Med Chem, 2013)

What was measured:
Assay type in all cases: functional
[1] = system: SF-539; test: Growth inhibition of human SF539 cells assessed as cell growth at 5X10'-6 M after 48 hrs by sulforhodamine B assay; details: SF-539, 48 h, read-out: Activity
[2] = system: T47D; test: Growth inhibition of human T47D cells assessed as cell growth at 5X10'-5 M after 48 hrs by sulforhodamine B assay; details: read-out: Activity
[3] = system: MDA-MB-435; test: Growth inhibition of human MDA-MB-435 cells assessed as cell growth at 5X10'-9 M after 48 hrs by sulforhodamine B assay; details: MDA-MB-435, 48 h, read-out: Activity
[4] = system: HCT-116; test: Growth inhibition of human HCT116 cells assessed as cell growth at 5X10'-8 M after 48 hrs by sulforhodamine B assay; details: HCT-116, 48 h, read-out: Activity
[5] = system: HOP-92; test: Growth inhibition of human HOP92 cells assessed as cell growth at 5X10'-9 M after 48 hrs by sulforhodamine B assay; details: HOP-92, 48 h, read-out: Activity
[6] = system: 786-0; test: Growth inhibition of human 786-0 cells assessed as cell growth at 5X10'-8 M after 48 hrs by sulforhodamine B assay; details: 786-0, 48 h, read-out: Activity
[7] = system: Malme-3M; test: Growth inhibition of human MALME-3M cells assessed as cell growth at 5X10'-5 M after 48 hrs by sulforhodamine B assay; details: read-out: Activity
[8] = system: KM12; test: Growth inhibition of human KM12 cells assessed as cell growth at 5X10'-8 M after 48 hrs by sulforhodamine B assay; details: KM12, 48 h, read-out: Activity
[9] = system: RPMI-8226; test: Growth inhibition of human RPMI8226 cells assessed as cell growth at 5X10'-5 M after 48 hrs by sulforhodamine B assay; details: RPMI-8226, 48 h, read-out: Activity
[10] = system: SF-295; test: Growth inhibition of human SF295 cells assessed as cell growth at 5X10'-5 M after 48 hrs by sulforhodamine B assay; details: SF-295, 48 h, read-out: Activity
[11] = system: SW-620; test: Growth inhibition of human SW620 cells assessed as cell growth at 5X10'-8 M after 48 hrs by sulforhodamine B assay; details: SW-620, 48 h, read-out: Activity
[12] = system: HCT-116; test: Growth inhibition of human HCT116 cells assessed as cell growth at 5X10'-9 M after 48 hrs by sulforhodamine B assay; details: HCT-116, 48 h, read-out: Activity
[13] = system: A549; test: Growth inhibition of human A549/ATCC cells assessed as cell growth at 5X10'-8 M after 48 hrs by sulforhodamine B assay; details: A549, 48 h, read-out: Activity
[14] = system: MDA-MB-468; test: Growth inhibition of human MDA-MB-468 cells assessed as cell growth at 5X10'-9 M after 48 hrs by sulforhodamine B assay; details: MDA-MB-468, 48 h, read-out: Activity
[15] = system: SK-MEL-28; test: Growth inhibition of human SK-MEL-28 cells assessed as cell growth at 5X10'-9 M after 48 hrs by sulforhodamine B assay; details: SK-MEL-28, 48 h, read-out: Activity
[16] = system: A549; test: Growth inhibition of human A549/ATCC cells assessed as cell growth at 5X10'-5 M after 48 hrs by sulforhodamine B assay; details: A549, 48 h, read-out: Activity
[17] = system: OVCAR-8; test: Growth inhibition of human OVCAR8 cells assessed as cell growth at 5X10'-5 M after 48 hrs by sulforhodamine B assay; details: OVCAR-8, 48 h, read-out: Activity
[18] = system: NCI-H522; test: Growth inhibition of human NCI-H522 cells assessed as cell growth at 5X10'-9 M after 48 hrs by sulforhodamine B assay; details: NCI-H522, 48 h, read-out: Activity
[19] = system: SF-268; test: Growth inhibition of human SF268 cells assessed as cell growth at 5X10'-9 M after 48 hrs by sulforhodamine B assay; details: SF-268, 48 h, read-out: Activity
[20] = system: SW-620; test: Growth inhibition of human SW620 cells assessed as cell growth at 5X10'-7 M after 48 hrs by sulforhodamine B assay; details: SW-620, 48 h, read-out: Activity
[21] = system: HT-29; test: Growth inhibition of human HT-29 cells assessed as cell growth at 5X10'-9 M after 48 hrs by sulforhodamine B assay; details: HT-29, 48 h, read-out: Activity
[22] = system: MDA-MB-231; test: Growth inhibition of human MDA-MB-231 cells assessed as cell growth at 5X10'-9 M after 48 hrs by sulforhodamine B assay; details: MDA-MB-231, 48 h, read-out: Activity
[23] = system: U-251; test: Growth inhibition of human U251 cells assessed as cell growth at 5X10'-7 M after 48 hrs by sulforhodamine B assay; details: U-251, 48 h, read-out: Activity
[24] = system: HT-29; test: Growth inhibition of human HT-29 cells assessed as cell growth at 5X10'-5 M after 48 hrs by sulforhodamine B assay; details: HT-29, 48 h, read-out: Activity
[25] = system: K562; test: Growth inhibition of human K562 cells assessed as cell growth at 5X10'-9 M after 48 hrs by sulforhodamine B assay; details: K562, 48 h, read-out: Activity
[26] = system: OVCAR-3; test: Growth inhibition of human OVCAR3 cells assessed as cell growth at 5X10'-9 M after 48 hrs by sulforhodamine B assay; details: OVCAR-3, 48 h, read-out: Activity
[27] = system: NCI-H322M; test: Growth inhibition of human NCI-H322M cells assessed as cell growth at 5X10'-7 M after 48 hrs by sulforhodamine B assay; details: read-out: Activity
[28] = system: UO-31; test: Growth inhibition of human UO31 cells assessed as cell growth at 5X10'-5 M after 48 hrs by sulforhodamine B assay; details: UO-31, 48 h, read-out: Activity
[29] = system: HCT-15; test: Growth inhibition of human HCT15 cells assessed as cell growth at 5X10'-6 M after 48 hrs by sulforhodamine B assay; details: HCT-15, 48 h, read-out: Activity
[30] = system: NCI-H460; test: Growth inhibition of human NCI-H460 cells assessed as cell growth at 5X10'-7 M after 48 hrs by sulforhodamine B assay; details: NCI-H460, 48 h, read-out: Activity
[31] = system: UO-31; test: Growth inhibition of human UO31 cells assessed as cell growth at 5X10'-8 M after 48 hrs by sulforhodamine B assay; details: UO-31, 48 h, read-out: Activity
[32] = system: T47D; test: Growth inhibition of human T47D cells assessed as cell growth at 5X10'-8 M after 48 hrs by sulforhodamine B assay; details: read-out: Activity
[33] = system: HT-29; test: Growth inhibition of human HT-29 cells assessed as cell growth at 5X10'-8 M after 48 hrs by sulforhodamine B assay; details: HT-29, 48 h, read-out: Activity
[34] = system: SNB-19; test: Growth inhibition of human SNB19 cells assessed as cell growth at 5X10'-8 M after 48 hrs by sulforhodamine B assay; details: SNB-19, 48 h, read-out: Activity
[35] = system: SK-OV-3; test: Growth inhibition of human SKOV3 cells assessed as cell growth at 5X10'-8 M after 48 hrs by sulforhodamine B assay; details: SK-OV-3, 48 h, read-out: Activity
[36] = system: MDA-MB-231; test: Growth inhibition of human MDA-MB-231 cells assessed as cell growth at 5X10'-8 M after 48 hrs by sulforhodamine B assay; details: MDA-MB-231, 48 h, read-out: Activity

COc1cc(-c2nn(-c3cccc(NC(=O)Nc4cccc(C(F)(F)F)c4)c3)cc2-c2ccncc2)ccc1Cl
growth at 5 µM [1]: -36% | growth at 50 µM [2]: 1% | growth at 0.005 µM [3]: 95% | growth at 0.05 µM [4]: 99% | growth at 0.005 µM [5]: 93% | growth at 0.05 µM [6]: 95% | growth at 50 µM [7]: -51% | growth at 0.05 µM [8]: 97% | growth at 50 µM [9]: -8% | growth at 50 µM [10]: -77% | growth at 0.05 µM [11]: 94% | growth at 0.005 µM [12]: 101% | growth at 0.05 µM [13]: 97% | growth at 0.005 µM [14]: 93% | growth at 0.005 µM [15]: 100% | growth at 50 µM [16]: 1% | growth at 50 µM [17]: -24% | growth at 0.005 µM [18]: 95% | growth at 0.005 µM [19]: 97% | growth at 0.5 µM [20]: 79% | growth at 0.005 µM [21]: 99% | growth at 0.005 µM [22]: 103% | growth at 0.5 µM [23]: 67% | growth at 50 µM [24]: -79% | growth at 0.005 µM [25]: 99% | growth at 0.005 µM [26]: 108% | growth at 0.5 µM [27]: 82% | growth at 50 µM [28]: -35% | growth at 5 µM [29]: 1% | growth at 0.5 µM [30]: 64% | growth at 0.05 µM [31]: 79% | growth at 0.05 µM [32]: 98% | growth at 0.05 µM [33]: 99% | growth at 0.05 µM [34]: 97% | growth at 0.05 µM [35]: 99% | growth at 0.05 µM [36]: 99%

COc1cc(-c2nn(-c3cccc(NC(=O)Nc4cc(C(F)(F)F)cc(C(F)(F)F)c4)c3)cc2-c2ccncc2)ccc1Cl
growth at 5 µM [1]: -74% | growth at 50 µM [2]: 5% | growth at 0.005 µM [3]: 98% | growth at 0.05 µM [4]: 106% | growth at 0.005 µM [5]: 77% | growth at 0.05 µM [6]: 102% | growth at 50 µM [7]: -63% | growth at 0.05 µM [8]: 107% | growth at 50 µM [9]: 3% | growth at 50 µM [10]: -73% | growth at 0.05 µM [11]: 95% | growth at 0.005 µM [12]: 101% | growth at 0.05 µM [13]: 95% | growth at 0.005 µM [14]: 90% | growth at 0.005 µM [15]: 101% | growth at 50 µM [16]: -65% | growth at 50 µM [17]: -11% | growth at 0.005 µM [18]: 102% | growth at 0.005 µM [19]: 100% | growth at 0.5 µM [20]: 69% | growth at 0.005 µM [21]: 110% | growth at 0.005 µM [22]: 101% | growth at 0.5 µM [23]: 60% | growth at 50 µM [24]: -77% | growth at 0.005 µM [25]: 99% | growth at 0.005 µM [26]: 114% | growth at 0.5 µM [27]: 83% | growth at 50 µM [28]: -93% | growth at 5 µM [29]: -57% | growth at 0.5 µM [30]: 55% | growth at 0.05 µM [31]: 94% | growth at 0.05 µM [32]: 104% | growth at 0.05 µM [33]: 108% | growth at 0.05 µM [34]: 91% | growth at 0.05 µM [35]: 103% | growth at 0.05 µM [36]: 95%
